Laboratory results: US20230085307A1, “PYRIDAZINONE COMPOUND AND HERBICIDE” (NISSAN CHEMICAL CORPORATION, priority 2019, published 2023)

Tests used:
velvetleaf [1] = test: Test Example 4: herbicidal effect by soil treatment (Table 19, symbol M); type: in vivo, velvetleaf (Abutilon theophrasti)
How it was run: (§1)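 Pre-emergence style soil spray: seeds under ~1.5 cm sterilized diluvial soil received a uniform coat of emulsion diluted to the predetermined herbicide amount. Greenhouse 25–30° C; readout at week three on previously defined criteria.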

velvetleaf [2] = test: Test Example 5: herbicidal effect by foliage application, plastic box (Table 20, symbol M); type: in vivo, velvetleaf (Abutilon theophrasti); conditions: foliage application, 320 g/ha
How it was run: (§2)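 Plants were sown into sterilized diluvial soil under about 1.5 cm cover and kept in a greenhouse at 25° C. to 30° C. Fourteen days on, foliage received an even spray of the diluted emulsion. Herbicidal or crop effect was judged three weeks afterwards.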

rice flat sedge = test: Test Example 3: herbicidal effect by foliage application, Wagner pot (Table 18, symbol E); type: in vivo, rice flat sedge (Cyperus iria); conditions: 320 g/ha
How it was run: (§3)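 Plants were sown in alluvial soil held under 0.1–0.5 cm standing water and grown 14 days in a greenhouse at 25–30 °C. An emulsifiable formulation, water-diluted to the set dose, was then sprayed onto the foliage, and effects were scored three weeks later using previously defined criteria.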

southern crabgrass [3] = test: Test Example 4: herbicidal effect by soil treatment (Table 19, symbol F); type: in vivo, southern crabgrass (Digitaria ciliaris)
How it was run: as §1

barnyard grass [4] = test: Test Example 5: herbicidal effect by foliage application, plastic box (Table 20, symbol H); type: in vivo, barnyard grass (Echinochloa crus-galli); conditions: foliage application, 320 g/ha
How it was run: as §2

blackgrass [5] = test: Test Example 4: herbicidal effect by soil treatment (Table 19, symbol J); type: in vivo, blackgrass (Alopecurus myosuroides)
How it was run: as §1

wild oat [6] = test: Test Example 5: herbicidal effect by foliage application, plastic box (Table 20, symbol I); type: in vivo, wild oat (Avena fatua); conditions: foliage application, 320 g/ha
How it was run: as §2

barnyard grass [7] = test: Test Example 4: herbicidal effect by soil treatment (Table 19, symbol H); type: in vivo, barnyard grass (Echinochloa crus-galli)
How it was run: as §1

blackgrass [8] = test: Test Example 5: herbicidal effect by foliage application, plastic box (Table 20, symbol J); type: in vivo, blackgrass (Alopecurus myosuroides); conditions: foliage application, 320 g/ha
How it was run: as §2

chickweed = test: Test Example 4: herbicidal effect by soil treatment (Table 19, symbol P); type: in vivo, common chickweed (Stellaria media)
How it was run: as §1

oval-leafed pondweed = test: Test Example 1: herbicidal activity, application before weed generation under submerged conditions (Table 16, symbol C); type: in vivo, oval-leafed pondweed (Monochoria vaginalis)
How it was run: (§4)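 Submerged Wagner pots (alluvial soil, 4 cm water) sown with weed seeds and planted with 2.5-leaf rice seedlings; emulsifiable concentrate diluted in water applied to water surface on sowing day. Held in greenhouse at 25-30 °C; injury scored 0-5 by herbicidal rate after three weeks.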

Japanese bulrush = test: Test Example 1: herbicidal activity, application before weed generation under submerged conditions (Table 16, symbol B); type: in vivo, Japanese bulrush (Schoenoplectus juncoides)
How it was run: as §4

southern crabgrass [9] = test: Test Example 5: herbicidal effect by foliage application, plastic box (Table 20, symbol F); type: in vivo, southern crabgrass (Digitaria ciliaris); conditions: foliage application, 320 g/ha
How it was run: as §2

lambsquarters [10] = test: Test Example 4: herbicidal effect by soil treatment (Table 19, symbol O); type: in vivo, lambsquarters (Chenopodium album)
How it was run: as §1

Italian ryegrass [11] = test: Test Example 4: herbicidal effect by soil treatment (Table 19, symbol K); type: in vivo, Italian ryegrass (Lolium multiflorum)
How it was run: as §1

barnyard grass [12] = test: Test Example 3: herbicidal effect by foliage application, Wagner pot (Table 18, symbol H); type: in vivo, barnyard grass (Echinochloa crus-galli); conditions: 320 g/ha
How it was run: as §3

Chinese sprangletop = test: Test Example 3: herbicidal effect by foliage application, Wagner pot (Table 18, symbol D); type: in vivo, chinese sprangletop (Leptochloa chinensis); conditions: 320 g/ha
How it was run: as §3

Italian ryegrass [13] = test: Test Example 5: herbicidal effect by foliage application, plastic box (Table 20, symbol K); type: in vivo, Italian ryegrass (Lolium multiflorum); conditions: foliage application, 320 g/ha
How it was run: as §2

late watergrass = test: Test Example 1: herbicidal activity, application before weed generation under submerged conditions (Table 16, symbol A); type: in vivo, late watergrass (Echinochloa oryzicola)
How it was run: as §4

redroot pigweed = test: Test Example 4: herbicidal effect by soil treatment (Table 19, symbol N); type: in vivo, redroot pigweed (Amaranthus retroflexus)
How it was run: as §1

persian speedwell [14] = test: Test Example 4: herbicidal effect by soil treatment (Table 19, symbol R); type: in vivo, Persian speedwell (Veronica persica)
How it was run: as §1

wild oat [15] = test: Test Example 4: herbicidal effect by soil treatment (Table 19, symbol I); type: in vivo, wild oat (Avena fatua)
How it was run: as §1

windgrass [16] = test: Test Example 5: herbicidal effect by foliage application, plastic box (Table 20, symbol L); type: in vivo, windgrass (Apera spica-venti); conditions: foliage application, 320 g/ha
How it was run: as §2

green foxtail [17] = test: Test Example 4: herbicidal effect by soil treatment (Table 19, symbol G); type: in vivo, green foxtail (Setaria viridis)
How it was run: as §1

windgrass [18] = test: Test Example 4: herbicidal effect by soil treatment (Table 19, symbol L); type: in vivo, windgrass (Apera spica-venti)
How it was run: as §1

green foxtail [19] = test: Test Example 5: herbicidal effect by foliage application, plastic box (Table 20, symbol G); type: in vivo, green foxtail (Setaria viridis); conditions: foliage application, 320 g/ha
How it was run: as §2

lambsquarters [20] = test: Test Example 5: herbicidal effect by foliage application, plastic box (Table 20, symbol O); type: in vivo, lambsquarters (Chenopodium album); conditions: foliage application, 320 g/ha
How it was run: as §2

persian speedwell [21] = test: Test Example 5: herbicidal effect by foliage application, plastic box (Table 20, symbol R); type: in vivo, Persian speedwell (Veronica persica); conditions: foliage application, 320 g/ha
How it was run: as §2

[22] = amount of applied herbicide 320 g/ha

In the case of COc1ccc(-c2sc3cc(OC)c(Cl)cc3c2-c2c(O)c(C)nn(C)c2=O)cc1 [5-070], the “M: velvetleaf, herbicidal effect grade” value (velvetleaf [1]; [22]) is reported as 0 (Herbicidal rate of 5% or less (almost no effect)), the “herbicidal effect on velvetleaf (M)” value (velvetleaf [2]; three weeks after application) is reported as 0 (Herbicidal rate of 5% or less (almost no effect)) and the “herbicidal effect on rice flat sedge (E)” value (rice flat sedge) is reported as 0 (Herbicidal rate of 5% or less (almost no effect)). For the same compound, the “F: southern crabgrass, herbicidal effect grade” value (southern crabgrass [3]; [22]) was 0 (Herbicidal rate of 5% or less (almost no effect)), the “herbicidal effect on barnyard grass (H)” value (barnyard grass [4]; three weeks after application) was 0 (Herbicidal rate of 5% or less (almost no effect)) and the “J: blackgrass, herbicidal effect grade” value (blackgrass [5]; [22]) was 0 (Herbicidal rate of 5% or less (almost no effect)). The “herbicidal effect on wild oat (I)” value (wild oat [6]; three weeks after application) was 0 (Herbicidal rate of 5% or less (almost no effect)), the “H: barnyard grass, herbicidal effect grade” value (barnyard grass [7]; [22]) was 0 (Herbicidal rate of 5% or less (almost no effect)) and the “herbicidal effect on blackgrass (J)” value (blackgrass [8]; three weeks after application) was 0 (Herbicidal rate of 5% or less (almost no effect)). The “P: chickweed, herbicidal effect grade” value (chickweed; [22]) was 1 (Herbicidal rate of 5% or more and less than 20%), the “Herbicidal effect, C: oval-leafed pondweed” value (oval-leafed pondweed; [22]) was 0 (Herbicidal rate of 5% or less (almost no effect)) and the “Herbicidal effect, B: Japanese bulrush” value (Japanese bulrush; [22]) was 2 (Herbicidal rate of 20% or more and less than 40%). The “herbicidal effect on southern crabgrass (F)” value (southern crabgrass [9]; three weeks after application) was 0 (Herbicidal rate of 5% or less (almost no effect)), the “O: lambsquarters, herbicidal effect grade” value (lambsquarters [10]; [22]) was 0 (Herbicidal rate of 5% or less (almost no effect)) and the “K: Italian ryegrass, herbicidal effect grade” value (Italian ryegrass [11]; [22]) was 0 (Herbicidal rate of 5% or less (almost no effect)). For the same compound, the “herbicidal effect on barnyard grass (H)” value (barnyard grass [12]) was 3 (Herbicidal rate of 40% or more and less than 70%), the “herbicidal effect on Chinese sprangletop (D)” value (Chinese sprangletop) was 0 (Herbicidal rate of 5% or less (almost no effect)) and the “herbicidal effect on Italian ryegrass (K)” value (Italian ryegrass [13]; three weeks after application) was 0 (Herbicidal rate of 5% or less (almost no effect)). The “Herbicidal effect, A: late watergrass” value (late watergrass; [22]) was 0 (Herbicidal rate of 5% or less (almost no effect)), the “N: redroot pigweed, herbicidal effect grade” value (redroot pigweed; [22]) was 0 (Herbicidal rate of 5% or less (almost no effect)) and the “R: persian speedwell, herbicidal effect grade” value (persian speedwell [14]; [22]) was 3 (Herbicidal rate of 40% or more and less than 70%). The “I: wild oat, herbicidal effect grade” value (wild oat [15]; [22]) was 0 (Herbicidal rate of 5% or less (almost no effect)), the “herbicidal effect on windgrass (L)” value (windgrass [16]; three weeks after application) was 0 (Herbicidal rate of 5% or less (almost no effect)) and the “G: green foxtail, herbicidal effect grade” value (green foxtail [17]; [22]) was 0 (Herbicidal rate of 5% or less (almost no effect)). For the same compound, the “L: windgrass, herbicidal effect grade” value (windgrass [18]; [22]) was 0 (Herbicidal rate of 5% or less (almost no effect)), the “herbicidal effect on green foxtail (G)” value (green foxtail [19]; three weeks after application) was 0 (Herbicidal rate of 5% or less (almost no effect)) and the “herbicidal effect on lambsquarters (O)” value (lambsquarters [20]; three weeks after application) was 0 (Herbicidal rate of 5% or less (almost no effect)). For the same compound, the “herbicidal effect on persian speedwell (R)” value (persian speedwell [21]; three weeks after application) was 4 (Herbicidal rate of 70% or more and less than 90%).

With Cc1nn(C)c(=O)c(-c2c(-c3ccc(C(C)C)cc3)sc3ccc(F)cc23)c1O [2-014] the “herbicidal effect rating, M: velvetleaf” value (velvetleaf [1]; 320 g/ha) was 3 (Herbicidal rate of 40% or more and less than 70%), the “effect on velvetleaf (M)” value (velvetleaf [2]; 3 weeks after application) was 5 (Herbicidal rate of 90% or more (almost completely withered)) and the “herbicidal effect on E (rice flat sedge), rating 0-5” value (rice flat sedge) was 5 (Herbicidal rate of 90% or more (almost completely withered)). The “herbicidal effect rating, F: southern crabgrass” value (southern crabgrass [3]; 320 g/ha) was 0 (Herbicidal rate of 5% or less (almost no effect)), the “effect on barnyard grass (H)” value (barnyard grass [4]; 3 weeks after application) was 5 (Herbicidal rate of 90% or more (almost completely withered)) and the “herbicidal effect rating, J: blackgrass” value (blackgrass [5]; 320 g/ha) was 0 (Herbicidal rate of 5% or less (almost no effect)). For the same compound, the “effect on wild oat (I)” value (wild oat [6]; 3 weeks after application) was 2 (Herbicidal rate of 20% or more and less than 40%), the “herbicidal effect rating, H: barnyard grass” value (barnyard grass [7]; 320 g/ha) was 4 (Herbicidal rate of 70% or more and less than 90%) and the “effect on blackgrass (J)” value (blackgrass [8]; 3 weeks after application) was 4 (Herbicidal rate of 70% or more and less than 90%). The “herbicidal effect rating, P: chickweed” value (chickweed; 320 g/ha) was 4 (Herbicidal rate of 70% or more and less than 90%), the “Herbicidal effect on C: oval-leafed pondweed (grade 0-5)” value (oval-leafed pondweed; 320 g/ha applied herbicide) was 0 (Herbicidal rate of 5% or less (almost no effect)) and the “Herbicidal effect on B: Japanese bulrush (grade 0-5)” value (Japanese bulrush; 320 g/ha applied herbicide) was 0 (Herbicidal rate of 5% or less (almost no effect)). For the same compound, the “effect on southern crabgrass (F)” value (southern crabgrass [9]; 3 weeks after application) was 5 (Herbicidal rate of 90% or more (almost completely withered)), the “herbicidal effect rating, O: lambsquarters” value (lambsquarters [10]; 320 g/ha) was 5 (Herbicidal rate of 90% or more (almost completely withered)) and the “herbicidal effect rating, K: Italian ryegrass” value (Italian ryegrass [11]; 320 g/ha) was 4 (Herbicidal rate of 70% or more and less than 90%). For the same compound, the “herbicidal effect on H (barnyard grass), rating 0-5” value (barnyard grass [12]) was 5 (Herbicidal rate of 90% or more (almost completely withered)), the “herbicidal effect on D (Chinese sprangletop), rating 0-5” value (Chinese sprangletop) was 5 (Herbicidal rate of 90% or more (almost completely withered)) and the “effect on Italian ryegrass (K)” value (Italian ryegrass [13]; 3 weeks after application) was 5 (Herbicidal rate of 90% or more (almost completely withered)). The “Herbicidal effect on A: late watergrass (grade 0-5)” value (late watergrass; 320 g/ha applied herbicide) was 3 (Herbicidal rate of 40% or more and less than 70%), the “herbicidal effect rating, N: redroot pigweed” value (redroot pigweed; 320 g/ha) was 5 (Herbicidal rate of 90% or more (almost completely withered)) and the “herbicidal effect rating, R: persian speedwell” value (persian speedwell [14]; 320 g/ha) was 5 (Herbicidal rate of 90% or more (almost completely withered)). For the same compound, the “herbicidal effect rating, I: wild oat” value (wild oat [15]; 320 g/ha) was 0 (Herbicidal rate of 5% or less (almost no effect)), the “effect on windgrass (L)” value (windgrass [16]; 3 weeks after application) was 5 (Herbicidal rate of 90% or more (almost completely withered)) and the “herbicidal effect rating, G: green foxtail” value (green foxtail [17]; 320 g/ha) was 2 (Herbicidal rate of 20% or more and less than 40%). For the same compound, the “herbicidal effect rating, L: windgrass” value (windgrass [18]; 320 g/ha) was 3 (Herbicidal rate of 40% or more and less than 70%), the “effect on green foxtail (G)” value (green foxtail [19]; 3 weeks after application) was 5 (Herbicidal rate of 90% or more (almost completely withered)) and the “effect on lambsquarters (O)” value (lambsquarters [20]; 3 weeks after application) was 5 (Herbicidal rate of 90% or more (almost completely withered)). For the same compound, the “effect on persian speedwell (R)” value (persian speedwell [21]; 3 weeks after application) was 5 (Herbicidal rate of 90% or more (almost completely withered)).
